The text below walks through data of patent US20230017045A1, “PYRIDINE AND PYRIMIDINE CARBOXYLATE HERBICIDES AND METHODS OF USE THEREOF” (Dow AgroSciences LLC, priority 2017, published 2023).

One series concerns test plant species. Kind of series: Post-emergent herbicidal activity test (greenhouse, foliar spray, visual growth reduction). Format: in vivo. The conditions noted are these: post-emergence, 336 h, 140 g ai/ha. In short, it runs like this:
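Scoring used a 0 to 100 percent visual scale of growth reduction against solvent-treated controls, read 14 d after spraying. Applications went onto plants at first or second true leaf stage, 187 L/ha, with crop oil concentrate and X-77 surfactant in the carrier. Post-treatment watering was by subirrigation to avoid wash-off.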

Setting [1] is: ALOMY: blackgrass (Alopecurus myosuroides), 14 days after application, read-out: Visual Growth Reduction (%) 14 Days After Application, ALOMY.
Where [2] appears, read: AMARE: redroot pigweed (Amaranthus retroflexus), 14 days after application, read-out: Visual Growth Reduction (%) 14 Days After Application, AMARE.
[3] abbreviates: AVEFA: wild oat (Avena fatua), 14 days after application, read-out: Visual Growth Reduction (%) 14 Days After Application, AVEFA.
[4] abbreviates: CHEAL: lambsquarters (Chenopodium album), 14 days after application, read-out: Visual Growth Reduction (%) 14 Days After Application, CHEAL.
[5] abbreviates: CIRAR: canada thistle (Cirsium arvense), 14 days after application, read-out: Visual Growth Reduction (%) 14 Days After Application, CIRAR.
Setting [6] is: CYPES: yellow nutsedge (Cyperus esculentus), 14 days after application, read-out: Visual Growth Reduction (%) 14 Days After Application, CYPES.
[7] abbreviates: DIGSA: crabgrass (Digitaria sanguinalis), 14 days after application, read-out: Visual Growth Reduction (%) 14 Days After Application, DIGSA.
The mark [8] stands for this setting: ECHCG: barnyardgrass (Echinochloa crus-galli), 14 days after application, read-out: Visual Growth Reduction (%) 14 Days After Application, ECHCG.
Where [9] appears, read: IPOHE: ivy-leaf morning glory (Ipomoea hederacea), 14 days after application, read-out: Visual Growth Reduction (%) 14 Days After Application, IPOHE.
Setting [10] is: KCHSC: kochia (Bassia scoparia), 14 days after application, read-out: Visual Growth Reduction (%) 14 Days After Application, KCHSC.
Setting [11] is: ORYSA: rice (Oryza sativa), 14 days after application, read-out: Visual Growth Reduction (%) 14 Days After Application, ORYSA.
[12] abbreviates: SETFA: giant foxtail (Setaria faberi), 14 days after application, read-out: Visual Growth Reduction (%) 14 Days After Application, SETFA.
The mark [13] stands for this setting: SORVU: grain sorghum (Sorghum vulgare), 14 days after application, read-out: Visual Growth Reduction (%) 14 Days After Application, SORVU.
[14] abbreviates: STEME: common chickweed (Stellaria media), 14 days after application, read-out: Visual Growth Reduction (%) 14 Days After Application, STEME.
Setting [15] is: TRZAS: wheat, spring (Triticum aestivum), 14 days after application, read-out: Visual Growth Reduction (%) 14 Days After Application, TRZAS.
[16] abbreviates: blackgrass (Alopecurus myosuroides), 14 Days After Application, read-out: Visual Growth Reduction (%) ALOMY.
Setting [17] is: canada thistle (Cirsium arvense), 14 Days After Application, read-out: Visual Growth Reduction (%) CIRAR.
The mark [18] stands for this setting: crabgrass (Digitaria sanguinalis), 14 Days After Application, read-out: Visual Growth Reduction (%) DIGSA.
The mark [19] stands for this setting: lambsquarters (Chenopodium album), 14 Days After Application, read-out: Visual Growth Reduction (%) CHEAL.
[20] abbreviates: redroot pigweed (Amaranthus retroflexus), 14 Days After Application, read-out: Visual Growth Reduction (%) AMARE.
The mark [21] stands for this setting: wild oat (Avena fatua), 14 Days After Application, read-out: Visual Growth Reduction (%) AVEFA.
The mark [22] stands for this setting: yellow nutsedge (Cyperus esculentus), 14 Days After Application, read-out: Visual Growth Reduction (%) CYPES.

Molecules are shown by their SMILES. Where two headings read alike, the source gives them in different places.

In the case of `COC(=O)c1nc(-c2ccc(C(F)(F)F)cc2Cl)cc(C)c1Cl` [F33, methyl 3-chloro-6-(2-chloro-4-(trifluoromethyl)phenyl)-4-methylpicolinate], the melting point lay within 61 to 63 °C. In addition, in the series on test plant species (setting [1]), the pest or weed control at 140 g/ha was 0 to 29%. Also, the pest or weed control at 140 g/ha in the series on test plant species (setting [2]) was in the range of 0 to 29%. Further, the pest or weed control at 140 g/ha in the series on test plant species (setting [3]) lay within 0 to 29%. The pest or weed control at 140 g/ha in the series with test plant species (setting [4]) is 45 to 59%. In the series on test plant species (setting [5]), the pest or weed control at 140 g/ha fell in the range of 45 to 59%. Further, in the series with test plant species (setting [6]), the pest or weed control at 140 g/ha lay in the range of 0 to 29%. Besides, the pest or weed control at 140 g/ha in the series with test plant species (setting [7]) fell in the range of 30 to 44%. Also, in the series on test plant species (setting [8]), the pest or weed control at 140 g/ha was in the range of 0 to 29%. Moreover, the pest or weed control at 140 g/ha in the series with test plant species (setting [9]) is 85 to 94%. Also, in the series on test plant species (setting [10]), the pest or weed control at 140 g/ha was 0 to 29%. Also, in the series with test plant species (setting [11]), the pest or weed control at 140 g/ha lay in the range of 0 to 29%. Also, the pest or weed control at 140 g/ha with test plant species (setting [12]) fell in the range of 0 to 29%. The pest or weed control at 140 g/ha in the series on test plant species (setting [13]) is 60 to 74%. In the series on test plant species (setting [14]), the pest or weed control at 140 g/ha lay within 0 to 29%. The pest or weed control at 140 g/ha in the series on test plant species (setting [15]) lay in the range of 0 to 29%.

The compound `COC(=O)c1nc(-c2ccc(C(F)(F)F)cc2Cl)c(F)c(OC)c1Cl` [F42, methyl 3-chloro-6-(2-chloro-4-(trifluoromethyl)phenyl)-5-fluoro-4-methoxypicolinate] gave a melting point of 65 to 67 °C. The pest or weed control at 140 g/ha in the series on test plant species (setting [1]) is 0 to 29%. Further, the pest or weed control at 140 g/ha in the series with test plant species (setting [2]) lay within 30 to 44%. In addition, the pest or weed control at 140 g/ha in the series on test plant species (setting [3]) was in the range of 0 to 29%. Also, in the series on test plant species (setting [4]), the pest or weed control at 140 g/ha was 85 to 94%. Also, the pest or weed control at 140 g/ha in the series on test plant species (setting [5]) was in the range of 60 to 74%. Moreover, in the series on test plant species (setting [6]), the pest or weed control at 140 g/ha was in the range of 0 to 29%. The pest or weed control at 140 g/ha in the series on test plant species (setting [7]) was in the range of 0 to 29%. Also, the pest or weed control at 140 g/ha in the series on test plant species (setting [8]) fell in the range of 0 to 29%. Further, the pest or weed control at 140 g/ha with test plant species (setting [9]) fell in the range of 85 to 94%. Besides, the pest or weed control at 140 g/ha with test plant species (setting [10]) is 45 to 59%. The pest or weed control at 140 g/ha in the series on test plant species (setting [11]) lay within 0 to 29%. Moreover, the pest or weed control at 140 g/ha in the series with test plant species (setting [12]) was in the range of 0 to 29%. Moreover, in the series on test plant species (setting [13]), the pest or weed control at 140 g/ha lay in the range of 75 to 84%. Further, the pest or weed control at 140 g/ha in the series with test plant species (setting [14]) lay within 0 to 29%. In addition, the pest or weed control at 140 g/ha in the series on test plant species (setting [15]) is 0 to 29%.

For the compound `COC(=O)c1nc(-c2ccc(C(F)(F)F)cc2C)c(F)cc1F` [F376, Methyl 3,5-difluoro-6-(2-methyl-4-(trifluoromethyl)phenyl)picolinate], the pest or weed control at 140 g/ha in the series on test plant species (setting [8]) is 0 to 29%; in the series on test plant species (setting [9]), 95 to 100%; with test plant species (setting [10]), 45 to 59%; in the series with test plant species (setting [11]), 0 to 29%; with test plant species (setting [12]) it was 60 to 74%; in the series on test plant species (setting [13]), 85 to 94%. Moreover, the pest or weed control at 140 g/ha in the series with test plant species (setting [14]) was 0 to 29%; in the series with test plant species (setting [15]), 0 to 29%; in the series on test plant species (setting [16]) it was 0 to 29%; with test plant species (setting [17]) it was 60 to 74%; in the series with test plant species (setting [18]) it was 60 to 74%; in the series on test plant species (setting [19]) it was 85 to 94%. The pest or weed control at 140 g/ha is 95 to 100% in the series with test plant species (setting [20]), 0 to 29% in the series on test plant species (setting [21]) and 0 to 29% in the series on test plant species (setting [22]).

On to `COC(=O)c1nc(-c2ccc(C(F)(F)F)cc2OC)c(F)cc1F` [F377, Methyl 3,5-difluoro-6-(2-methoxy-4-(trifluoromethyl)phenyl)picolinate], for which the pest or weed control at 140 g/ha was 60 to 74% in the series on test plant species (setting [8]); 95 to 100% in the series on test plant species (setting [9]); 60 to 74% in the series with test plant species (setting [10]); 0 to 29% in the series with test plant species (setting [11]); 75 to 84% in the series on test plant species (setting [12]); 85 to 94% in the series on test plant species (setting [13]). For the same compound, the pest or weed control at 140 g/ha with test plant species (setting [14]) is 0 to 29%; in the series on test plant species (setting [15]), 0 to 29%; in the series with test plant species (setting [16]), 0 to 29%; with test plant species (setting [17]), 75 to 84%; in the series with test plant species (setting [18]), 60 to 74%; in the series on test plant species (setting [19]), 85 to 94%. The pest or weed control at 140 g/ha in the series on test plant species (setting [20]) was 95 to 100%; in the series with test plant species (setting [21]), 30 to 44%; in the series with test plant species (setting [22]), 60 to 74%.

As for `COC(=O)c1nc(-c2ccc(C#N)cc2F)c(F)cc1Cl` [F378, Methyl 3-chloro-6-(4-cyano-2-fluorophenyl)-5-fluoropicolinate], the pest or weed control at 140 g/ha with test plant species (setting [8]) lay in the range of 0 to 29%; in the series with test plant species (setting [9]), 95 to 100%; with test plant species (setting [10]), 45 to 59%; with test plant species (setting [11]), 0 to 29%; in the series on test plant species (setting [12]) it was 60 to 74%; in the series with test plant species (setting [13]), 75 to 84%. Further, the pest or weed control at 140 g/ha fell in the range of 0 to 29% in the series on test plant species (setting [14]); 0 to 29% in the series on test plant species (setting [15]); 0 to 29% with test plant species (setting [16]); 45 to 59% with test plant species (setting [17]); 60 to 74% in the series on test plant species (setting [18]); 75 to 84% in the series on test plant species (setting [19]). Moreover, the pest or weed control at 140 g/ha with test plant species (setting [20]) lay within 45 to 59%; in the series with test plant species (setting [21]) it was 0 to 29%; in the series with test plant species (setting [22]) it was 0 to 29%.

Regarding `O=C(OCc1ccccc1C(F)(F)F)c1nc(-c2ccc(C(F)(F)F)cc2Cl)ccc1Cl` [F380, 2-(Trifluoromethyl) benzyl 3-chloro-6-(2-chloro-4-(trifluoromethyl)phenyl)picolinate], the pest or weed control at 140 g/ha lay within 75 to 84% in the series with test plant species (setting [8]); 95 to 100% with test plant species (setting [9]); 75 to 84% in the series on test plant species (setting [10]); 0 to 29% with test plant species (setting [11]); 95 to 100% with test plant species (setting [12]); 95 to 100% with test plant species (setting [13]). The pest or weed control at 140 g/ha lay in the range of 0 to 29% with test plant species (setting [14]); 60 to 74% in the series with test plant species (setting [15]); 45 to 59% in the series on test plant species (setting [16]); 85 to 94% with test plant species (setting [17]); 95 to 100% in the series with test plant species (setting [18]); 95 to 100% in the series on test plant species (setting [19]). Also, the results for the pest or weed control at 140 g/ha in the series with test plant species (setting [20]), in the series on test plant species (setting [21]) and in the series on test plant species (setting [22]) were 95 to 100%, 60 to 74% and 0 to 29%, respectively.

In the case of `C=C(C)COC(=O)c1nc(-c2ccc(C(F)(F)F)cc2Cl)ccc1Cl` [F381, 2-Methylallyl 3-chloro-6-(2-chloro-4-(trifluoromethyl)phenyl)picolinate], the pest or weed control at 140 g/ha with test plant species (setting [8]) fell in the range of 85 to 94%; in the series on test plant species (setting [9]), 95 to 100%; in the series on test plant species (setting [10]), 95 to 100%; with test plant species (setting [11]) it was 0 to 29%; in the series on test plant species (setting [12]), 85 to 94%; with test plant species (setting [13]) it was 85 to 94%. Besides, the pest or weed control at 140 g/ha lay within 0 to 29% with test plant species (setting [14]); 60 to 74% in the series on test plant species (setting [15]); 45 to 59% with test plant species (setting [16]); 85 to 94% in the series with test plant species (setting [17]); 85 to 94% with test plant species (setting [18]); 95 to 100% with test plant species (setting [19]). For the same compound, the results for the pest or weed control at 140 g/ha in the series with test plant species (setting [20]), with test plant species (setting [21]) and in the series on test plant species (setting [22]) were 85 to 94%, 45 to 59% and 0 to 29%, respectively.

As usually defined, the melting point is the temperature, or range, at which the solid turns liquid.
